Results: PMC6990405, “Synthesis and Structure–Activity relationship of 1-(5-isoquinolinesulfonyl)piperazine analogues as inhibitors of Mycobacterium tuberculosis IMPDH” (European Journal of Medicinal Chemistry, 2019)
Values after ≈ are worked out from the molar mass of the structure shown.

Tests used:
[1] = tested on: M. tuberculosis; parameters: method as in PMID 20934382; conditions: cited from earlier work
[2] = biological target: T1, Mtb IMPDH (Mycobacterium tuberculosis, UniProt P9WKI7); test: IMPDH biochemical assay (inhibition of Mtb GuaB2); conditions: for IC50: Mtb IMPDH (GuaB2) enzyme
T1 construct: made in house

[3] = tested on: wild-type M. tuberculosis strain H37Rv; test: microbe, parasite or virus in culture; type: cell-based; conditions: for MIC90: Mycobacterium tuberculosis, H37RV, wild-type M. tuberculosis H37Rv, read-out: MIC90 against WT
[4] = biological target: Mycobacterium thermoresistible (Mth) IMPDH ΔCBS (Mycobacterium thermoresistible) (UniProt G7CNL4); test: crystal structure

Row | Compound | IC50 [2] | MIC90 [3] | other results
1 | O=S(=O)(c1cccc2cnccc12)N1CCNCC1 [5-(piperazin-1-ylsulfonyl)isoquinoline] | – | – | MIC against M. tuberculosis [1]: no MIC
2 | O=C(Nc1ccc2c(c1)OCO2)N1CCCN(S(=O)(=O)c2cccc3cnccc23)CC1 [Compound 44, 4-(isoquinoline-5-sulfonyl)-N-(2H-1,3-benzodioxol-5-yl)-1,4-diazepane-1-carboxamide] | 600 ± 20 nM | 12.5 µM (≈ 5.68 µg/mL) | fold reduction in biochemical activity ([2]; relative to compound 41): 8 fold; fold reduction in whole-cell activity ([3]; relative to compound 41): 2 fold
3 | CC1CN(S(=O)(=O)c2cccc3cnccc23)CCN1C(=O)Nc1ccc2c(c1)OCO2 (centres unmarked) [Compound 45, N-(benzo[d][1,3]dioxol-5-yl)-4-(isoquinolin-5-ylsulfonyl)-2-methylpiperazine-1-carboxamide] | 120 ± 20 nM | 12.5 µM (≈ 5.68 µg/mL) | –
4 | O=C(NCc1ccccc1)N1CCN(S(=O)(=O)c2cccc3cnccc23)CC1 [Compound 46, N-benzyl-4-(isoquinolin-5-ylsulfonyl)piperazine-1-carboxamide] | 350 ± 30 nM | 3.1 µM (≈ 1.27 µg/mL) | –
5 | COc1cccc(CNC(=O)N2CCN(S(=O)(=O)c3cccc4cnccc34)CC2)c1 [Compound 47, 4-(isoquinolin-5-ylsulfonyl)-N-(3-methoxybenzyl)piperazine-1-carboxamide] | 35 ± 2 nM | 3.1 µM (≈ 1.37 µg/mL) | fold greater potency than 1 (IMPDH) ([2]; relative to compound 1): ~3 fold
6 | Cc1ccccc1CNC(=O)N1CCN(S(=O)(=O)c2cccc3cnccc23)CC1 [Compound 48, 4-(isoquinolin-5-ylsulfonyl)-N-(2-methylbenzyl)piperazine-1-carboxamide] | 270 ± 30 nM | 3.9 µM (≈ 1.66 µg/mL) | –
7 | O=C(OCc1ccccc1)N1CCN(S(=O)(=O)c2cccc3cnccc23)CC1 [Compound 49, Benzyl 4-(isoquinolin-5-ylsulfonyl)piperazine-1-carboxylate] | 800 ± 50 nM | 100 µM (≈ 41.1 µg/mL) | –
8 | Mycobacterium thermoresistible (Mth) IMPDH ΔCBS (from UniProt G7CNL4 1-513) (enzyme) | – | – | stoichiometry N [4]: 4
